According to US10220072B2, “Mesalamine for the treatment of cancer” (Cipla Limited, priority 2016, dated 2019):
Like-named read-outs stand apart in the source and are kept apart here.

Assays:
[1] = system: 10 human tumor xenograft-derived cell suspensions or tumor cell lines of renal cancer; experiment: Clonogenic assay: ex vivo colony formation (anchorage independent growth) in semi-solid medium; format: cell-based; settings: for IC50: Homo sapiens, mean across 10 renal cancer tumor models, test concentrations 0.0698 mM to 3 mM
Description: In the present study, mesalamine was characterized for their ability to inhibit anchorage independent growth and ex vivo colony formation of tumor cells in semi-solid medium. Mesalamine was tested against 10 human tumor xenograft-derived cell suspensions or tumor cell lines of renal cancer. Test concentrations ranged from 0.0698 mM to 3 mM.
Cell lines were routinely passaged one or twice weekly. All cells were grown at 37° C. in a humidified atmosphere with 5% CO2 in RPMI 1640 medium (Biochrom) supplemented with 10% (v/v) fetal calf serum and 0.1 mg/mL gentamicin. The percentage of viable cells was determined in a Neubauer-hemocytometer using trypan blue exclusion.
Tumor xenografts (patient-derived, as well as cell line-derived xenografts) were passaged as subcutaneous xenografts in NMRI nu/nu mice. At a tumor volume of 400-1000 mm^3 tumor-bearing mice were sacrificed and tumors were collected under sterile conditions without delay according to the relevant Oncotest SOPs and the relevant animal welfare guidelines published by the FELASA and the GV-SOLAS. Tumors were mechanically disaggregated and subsequently incubated with an enzyme cocktail consisting of collagenase type IV (41 U/mL), DNase I (125 U/mL), hyaluronidase type III (100 U/mL), and dispase II (1.0 U/mL) in RPMI 1640 medium (Life Technologies) at 37° C. for 60-120 minutes. Cells were passed through sieves of 100 μm and 40 μm mesh size (Cell Strainer, BD Falcon™), and washed with RPMI 1640 medium. The percentage of viable cells was determined in a Neubauer-hemocytometer using trypan blue exclusion. Aliquots of the cells were frozen down, and stored in liquid nitrogen. On each day of an experiment, a frozen aliquot of tumor cells was thawed and used for preparation of assay plates.
The clonogenic assay was carried out in a 96 well plate format using ultra low attachment plates. […] Cultures were incubated at 37° C. and 7.5% CO2 in a humidified atmosphere for 8 to 13 days and monitored closely for colony growth using an inverted microscope. […]

[2] = system: Human renal cell carcinoma cell line (A498); experiment: In vivo anti-tumor efficacy in xenograft model; set-up: species or system female athymic nude mice
Description: Healthy 10 female athymic nude mice were recruited for the donor cell inoculation. Animals were subcutaneously injected at flank region with 10 million A498 cells suspended in 200 μl of media and matrigel. Animals were monitored for solid tumor growth. […] Tumors were fragmented in to ˜30 mg size. […] Tumor bearing animals were selected from the experimental animals and grouped on basis of tumor size, into six groups containing 7 animals in each group. […] Group 3 received mesalamine at 250 mg/kg. [table] The tumor sizes were measured weekly twice from the date of tumor appearance till the end of the experiment. Tumor size was measured by digital vernier caliper (MITUTOYO) by measuring length (L=longest axis) and width (W=shortest axis). […] From the tumor volume data mean tumor volume and % tumor growth inhibition (% TGI) were determined.

[3] = G3, 250 mg/kg p.o. q.d.x21, Day 1
[4] = G3, 250 mg/kg p.o. q.d.x21, Day 6
[5] = G3, 250 mg/kg p.o. q.d.x21, Day 9
[6] = G3, 250 mg/kg p.o. q.d.x21, Day 13
[7] = G3, 250 mg/kg p.o. q.d.x21, Day 16
[8] = G3, 250 mg/kg p.o. q.d.x21, Day 20
[9] = G2, 20 mg/kg p.o. q.d.x21 (sub-therapeutic dose), Day 1
[10] = G2, 20 mg/kg p.o. q.d.x21 (sub-therapeutic dose), Day 6
[11] = G2, 20 mg/kg p.o. q.d.x21 (sub-therapeutic dose), Day 9
[12] = G2, 20 mg/kg p.o. q.d.x21 (sub-therapeutic dose), Day 13
[13] = G2, 20 mg/kg p.o. q.d.x21 (sub-therapeutic dose), Day 16
[14] = G2, 20 mg/kg p.o. q.d.x21 (sub-therapeutic dose), Day 20

## Nc1ccc(O)c(C(=O)O)c1 [Mesalamine, 5-amino-2-hydroxybenzoic acid]
[1]; continuous exposure 8 to 13 days, read-out: mean relative IC50 value, inhibition of colony formation
  IC50: 1210 µM
[1]; read-out: second mean IC50 value printed in brackets after the mean relative IC50
  IC50: 1260 µM
[1]; responding tumor models
  Bottom plateaus of the concentration-effect curves of responding tumor models: 0 to 18%
[2]; [3]
  Mean Tumor Growth Inhibition (% TGI): 1.56%
  Mean Tumor Volume: 145.26 mm^3
[2]; [4]
  Mean Tumor Growth Inhibition (% TGI): 51.29%
  Mean Tumor Volume: 161.68 mm^3
[2]; [5]
  Mean Tumor Growth Inhibition (% TGI): 46.01%
  Mean Tumor Volume: 250.41 mm^3
[2]; [6]
  Mean Tumor Growth Inhibition (% TGI): 51.09%
  Mean Tumor Volume: 301.82 mm^3
[2]; [7]
  Mean Tumor Growth Inhibition (% TGI): 47.87%
  Mean Tumor Volume: 501.10 mm^3
[2]; [8]
  Mean Tumor Growth Inhibition (% TGI): 58.08%
  Mean Tumor Volume: 536.78 mm^3
[2]; at the dose tested (250 mg/kg p.o. q.d.x21)
  inhibiting tumor formation (anti-tumor efficacy by itself): more than 50%
[2]; mesalamine 250 mg/kg vs sunitinib 20 mg/kg, p.o. q.d.x21
  anti-tumor efficacy compared with standard: comparable to sunitinib

## CCN(CC)CCNC(=O)c1c(C)[nH]c(/C=C2\C(=O)Nc3ccc(F)cc32)c1C [Sunitinib]
[2]; [9]
  Mean Tumor Growth Inhibition (% TGI): 1.47%
  Mean Tumor Volume: 145.40 mm^3
[2]; [10]
  Mean Tumor Growth Inhibition (% TGI): 47.31%
  Mean Tumor Volume: 174.90 mm^3
[2]; [11]
  Mean Tumor Growth Inhibition (% TGI): 43.52%
  Mean Tumor Volume: 261.95 mm^3
[2]; [12]
  Mean Tumor Growth Inhibition (% TGI): 44.80%
  Mean Tumor Volume: 340.62 mm^3
[2]; [13]
  Mean Tumor Growth Inhibition (% TGI): 53.39%
  Mean Tumor Volume: 448.05 mm^3
[2]; [14]
  Mean Tumor Growth Inhibition (% TGI): 50.78%
  Mean Tumor Volume: 630.25 mm^3
